From publication PMC3199943, “Screening the MayBridge Rule of 3 Fragment Library for Compounds That Interact with the Trypanosoma brucei myo-Inositol-3-Phosphate Synthase and/or Show Trypanocidal Activity” (Molecular Biology International, 2011)
Where a name gives a salt, the structure may show the parent alone. Read-outs that look alike come from different tables or passages of the source.

What was measured:
[1] = system: A549 cells; experiment: Cytotoxicity against A549 cells, Alamar Blue; assay type: cell-based; conditions: Supplementary Table 1, compound 0.5 mM, percentage of controls (n=1); for viability at 500 µM: Homo sapiens, A549, 65 h
Outline: (§1)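 Alamar Blue read-out after a 5 h dye incubation that followed ~65 h compound exposure. Cells: HeLa or A549, 2 × 10^4/well, DMEM + 10% FCS + 2 mM L-Glutamine.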

[2] = target: T1, TbINO1 (Trypanosoma brucei brucei, UniProt Q5QQ46); experiment: biochemical; assay type: binding
T1 sequence (Q5QQ46 1-528): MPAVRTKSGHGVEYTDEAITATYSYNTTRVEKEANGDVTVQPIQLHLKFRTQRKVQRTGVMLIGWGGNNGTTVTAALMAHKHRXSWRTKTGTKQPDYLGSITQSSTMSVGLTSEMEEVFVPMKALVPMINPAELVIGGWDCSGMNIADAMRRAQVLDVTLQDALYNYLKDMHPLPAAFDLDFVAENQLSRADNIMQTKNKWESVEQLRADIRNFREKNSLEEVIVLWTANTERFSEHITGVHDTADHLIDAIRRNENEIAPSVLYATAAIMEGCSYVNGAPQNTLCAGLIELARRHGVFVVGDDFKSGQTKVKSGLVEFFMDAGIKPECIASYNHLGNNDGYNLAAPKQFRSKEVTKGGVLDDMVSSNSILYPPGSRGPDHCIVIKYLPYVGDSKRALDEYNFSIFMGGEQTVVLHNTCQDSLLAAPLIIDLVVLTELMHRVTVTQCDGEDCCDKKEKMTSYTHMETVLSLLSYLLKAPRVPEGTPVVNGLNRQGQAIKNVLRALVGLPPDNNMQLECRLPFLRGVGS

[3] = system: HeLa cells; experiment: cells; conditions: for viability at 500 µM / CC50: Homo sapiens, HeLa; for viability at 500 µM: 65 h; for HeLa Cells Alamar Blue: Supplementary Table 1; for CC50: read-out: HeLa ED50
Outline: as §1

[4] = read-out: Tb Ino1 Tm Shift [˚C]
[5] = read-out: HeLa Cells Alamar Blue
[6] = Supplementary Table 1, compound 1mM, mean ± SD from Boltzman curve fitting, read-out: Tb Ino1 Tm Shift [˚C]
[7] = Supplementary Table 1, compound 1mM, mean ± SD from Boltzman curve fitting
[8] = compound 0.5 mM, percentage of controls, mean ± SD (n=3) or SE (n=2)
[9] = read-out: HeLa Cells Alamar Blue (% survival)

| ΔTm at 1000 µM [2, 4] | SMILES | viability at 500 µM [1] | viability at 500 µM [3, 5] | also measured |
| --- | --- | --- | --- | --- |
| 1.28 ± 0.09 °C | O=C(O)c1cncc(-c2ccccc2)c1 [compound 615, 5‐phenylnicotinic acid] | 75.6% | 80.4 ± 11.7% |  |
| 0 °C | Cn1ccc2cc(C(=O)O)ccc21 [compound 394, 1‐methyl‐1H‐indole‐5‐carboxylic acid] | 82% | 95 ± 12.2% |  |
| 0.19 ± 0.06 °C | NCc1ccc(-n2cccn2)cc1 [compound 378, 4‐(1H‐pyrazol‐1‐yl)benzylamine] | 95.9% | 101 ± 8.3% |  |
| 0.63 ± 0.07 °C | Cn1ccc2c(C(=O)O)cccc21 [compound 399, 1‐methyl‐1H‐indole‐4‐carboxylic acid] | 123% | 99.3 ± 14.2% |  |
| 0.91 ± 0.07 °C | O=C(O)c1ccc(-c2ccccn2)s1 [compound 661, 5‐(2‐pyridyl)thiophene‐2‐carboxylic acid] | 94.1% | 95.3 ± 3.5% |  |
| 0.36 ± 0.07 °C | Nc1cc(F)ccc1-n1ccnc1 [compound 420, 5‐fluoro‐2‐(1H‐imidazol‐1‐yl)aniline] | 100% | 98.2 ± 10.9% |  |
| 0.34 ± 0.06 °C | OCc1ccccc1N1CCOCC1 [compound 580, (2‐morpholinophenyl)methanol] | 123% | 91.3 ± 16% |  |
| 0.39 ± 0.06 °C | N#Cc1cccc(-n2ccnc2)c1 [compound 339, 3‐(1H‐imidazol‐1‐yl)benzonitrile] | 135% | 89.8 ± 5.8% |  |
| 0.16 ± 0.07 °C | N#Cc1ncccc1N1CCCCC1 [compound 517, 3‐piperidin‐1‐ylpyridine‐2‐carbonitrile] | 54.7% | 51.2 ± 17.9% |  |
| 0.18 ± 0.06 °C | N#Cc1ccccc1-n1cccn1 [compound 340, 2‐(1H‐pyrazol‐1‐yl)benzonitrile] | 134% | 104 ± 16.5% |  |
| 0.8 ± 0.08 °C | OCc1cc2cccnc2s1 [compound 311, thieno[2,3‐b]pyridin‐2‐ylmethanol] | 77.5% | 92 ± 11.8% |  |
| 0.01 ± 0.07 °C | OCc1ccc(OC(F)(F)F)cc1 [compound 563, [4‐(trifluoromethoxy)phenyl]methanol] | 92.9% | 94.5 ± 8.3% |  |
| 0.06 ± 0.07 °C | Cc1cc(C(=O)O)c(C(F)(F)F)o1 [compound 583, 5‐methyl‐2‐(trifluoromethyl)‐3‐furoic acid] | 59.6% | 86.1 ± 15.8% |  |
| 0.84 ± 0.08 °C | COC(=O)c1ccccc1-n1cccc1 [compound 628, methyl 2‐(1H‐pyrrol‐1‐yl)benzoate] | 85.1% | 70.4 ± 14% |  |
| 0.02 ± 0.06 °C | CNCc1ccc(-c2ccccn2)cc1 [compound 607, N‐methyl‐N‐(4‐pyridin‐2‐ylbenzyl)amine] | 71.5% | 57.7 ± 17.1% |  |

Further lines, the compound ahead of its results:

| SMILES | ΔTm at 1000 µM [2, 4] | viability at 500 µM [1] | viability at 500 µM [3, 5] | also measured |
| --- | --- | --- | --- | --- |
| NCc1nc2ccccc2s1 [compound 626, 1,3-benzothiazol-2-ylmethylamine hydrochloride] |  | 85.7% |  | ΔTm at 1000 µM ([2]; read-out: TbIno1 Tm shift [°C]): 2.03 ± 0.08 °C; viability at 500 µM ([3]; read-out: HeLa Cells Alamar Blue (% survival), compound 0.5 mM, percentage of controls): 95.1 ± 15.5%; viability at 500 µM ([3]; read-out: HeLa Cells Alamar Blue, Supplementary Table 1, compound 0.5 mM, percentage of controls, mean ± SD (n=3) or SE (n=2)): 95.1 ± 15.5% |
| OCc1ccc2[nH]cnc2c1 [compound 170, 1H‐benzimidazol‐5‐ylmethanol] | 0.15 ± 0.07 °C | 92% | 98.3 ± 4.2% |  |
| O=C(O)C1CCNCC1 [compound 90, piperidine‐4‐carboxylic acid] | 0.5 ± 0.06 °C | 132% | 106 ± 2% |  |
| COC(=O)c1cccc(N)c1 [compound 194, methyl 3‐aminobenzoate] | 0.78 ± 0.06 °C | 38.9% | 88.3 ± 9.2% |  |
| CN1CCN(C)C1=O [compound 35, 1,3‐dimethylimidazolidin‐2‐one] |  | 92.7% | 101 ± 6.6% | ΔTm at 1000 µM [2, 6]: 0.04 ± 0.07 °C |
| OCc1cccc2c1OCO2 [compound 203, 1,3‐benzodioxol‐4‐ylmethanol] | 0.06 ± 0.08 °C | 60.8% | 94.6 ± 14.1% |  |
| Cc1ccc(C)c(C(O)C(=O)O)c1 (centres unmarked) [compound 454, 2‐(2,5‐dimethylphenyl)‐2‐hydroxyacetic acid] |  |  |  | A549 Cells Alamar Blue [1]: 60.8 percentage of controls; Tb Ino1 Tm Shift [˚C] [2, 7]: 0.02 ± 0.06 °C; HeLa Cells Alamar Blue [3, 8]: 96.8 ± 12.7 percentage of controls |
| CNCc1ccncc1 [compound 56, N‐methyl‐N‐(4‐pyridinylmethyl)amine] | 0.01 ± 0.08 °C | 78.5% | 87.9 ± 9.9% |  |
| Nc1ccc(CO)cn1 [compound 66, (6‐amino‐3‐pyridinyl)methanol] | 0.24 ± 0.09 °C | 85.1% | 80.3 ± 9.7% |  |
| O=C1COc2cc(O)ccc21 [compound 182, 6‐hydroxy‐2,3‐dihydrobenzo[b]furan‐3‐one] |  |  |  | A549 Cells Alamar Blue [1]: 65.6 percentage of controls; Tb Ino1 Tm Shift [˚C] [2, 7]: 0.92 ± 0.09 °C; HeLa Cells Alamar Blue [3, 8]: 119.6 ± 2.4 percentage of controls |
| O=C(O)c1ccco1 [compound 27, 2‐furoic acid] | 0.17 ± 0.06 °C | 107% | 95.7 ± 9.4% |  |
| Cn1nc2ccccc2c1CO [compound 285, (2‐methyl‐2H‐indazol‐3‐yl)methanol] | 0.29 ± 0.07 °C | 67.6% | 73.4 ± 10.6% |  |
| Nc1ccc2ncsc2c1 [compound 191, 1,3‐benzothiazol‐6‐amine] | 0.44 ± 0.11 °C | 38% | 76.3 ± 15.1% |  |
| Cc1cc2c(N)cccc2nn1 [compound 261, 3-methylcinnolin-5-amine] |  | 74.1% | 62.5 ± 14.7% | ΔTm at 1000 µM ([2]; read-out: TbIno1 Tm shift [°C]): 1.83 ± 0.11 °C; viability at 500 µM [3, 9]: 62.5 ± 14.7%; CC50 [3]: 726 ± 64 µM |
| N#Cc1scc2c1OCCO2 [compound 327, 2,3‐dihydrothieno[3,4‐b][1,4]dioxine‐5‐carbonitrile] |  |  |  | A549 Cells Alamar Blue [1]: 121.1 percentage of controls; Tb Ino1 Tm Shift [˚C] [2, 7]: 0.12 ± 0.06 °C; HeLa Cells Alamar Blue [3, 8]: 115.5 ± 14.4 percentage of controls |
| COc1ncccc1N [compound 65, 2‐methoxypyridin‐3‐amine] | 1.46 ± 0.07 °C | 75.4% | 66.6 ± 18.7% |  |
| O=C(O)c1ccccc1-n1cccc1 [compound 513, 2-(1H-pyrrol-1-yl)benzoic acid] |  | 64.4% | 98.5 ± 6.5% | ΔTm at 1000 µM ([2]; compound 1 mM, mean ± SD (n = 3), read-out: TbIno1 Tm shift [°C]): 3.14 ± 0.09 °C; viability at 500 µM [3, 9]: 98.5 ± 6.5% |
| Cc1cccc(C)c1C#N [compound 94, 2,6‐dimethylbenzonitrile] |  | 114% | 96.4 ± 13.9% | ΔTm at 1000 µM [2, 6]: 1.3 ± 0.06 °C |
| Cc1ccc(C(N)=O)c(N)c1 [compound 190, 2-amino-4-methylbenzamide] |  | 106% | 46.7 ± 23.7% | ΔTm at 1000 µM ([2]; read-out: TbIno1 Tm shift [°C]): 1.52 ± 0.06 °C; viability at 500 µM [3, 9]: 46.7 ± 23.7% |
| CNCc1c(-c2ccccc2)noc1C [compound 637, N‐methyl‐N‐[(5‐methyl‐3‐phenylisoxazol‐4‐yl)methyl]amine] |  |  |  | A549 Cells Alamar Blue [1]: 112.6 percentage of controls; Tb Ino1 Tm Shift [˚C] [2, 7]: 0.02 ± 0.07 °C; HeLa Cells Alamar Blue [3, 8]: 79.8 ± 7.5 percentage of controls |
| OCc1c[nH]c2ccccc12 [compound 162, 1H-indol-3-ylmethanol] |  | 41.6% | 16.3 ± 10.6% | ΔTm at 1000 µM ([2]; read-out: TbIno1 Tm shift [°C]): 2.31 ± 0.06 °C; viability at 500 µM [3, 9]: 16.3 ± 10.6%; CC50 [3]: 103 ± 6 µM |
| Cn1cncc1C#N [compound 15, 1‐methyl‐1H‐imidazole‐5‐carbonitrile] | 0.08 ± 0.07 °C | 90% | 101 ± 9.5% |  |
| O=C(O)c1ccoc1 [compound 28, 3-furoic acid] |  | 111% | 48.2 ± 11.8% | ΔTm at 1000 µM ([2]; read-out: TbIno1 Tm shift [°C]): 3.72 ± 0.08 °C; viability at 500 µM [3, 9]: 48.2 ± 11.8% |
| Clc1ccc(Cl)s1 [compound 211, 2,5‐dichlorothiophene] | 0.02 ± 0.08 °C | 117% | 99.6 ± 4.1% |  |
| CCC1CCC(N)CC1 (centres unmarked) [compound 84, 4‐ethylcyclohexanamine] | 0.44 ± 0.06 °C | 118% | 90.7 ± 14.2% |  |
| c1cc(-c2ccncc2)ccn1 [compound 235, 4,4'‐dipyridyl] |  | 54.8% | 63.7 ± 17.4% | ΔTm at 1000 µM [2, 6]: 0.2 ± 0.07 °C |
